Test results: patent US6608086B2, “Dihydropyridines and new uses thereof” (Synaptic Pharmaceutical Corporation, priority 1993, dated 2003)
Structures can show the parent of a compound that is named as a salt. Where two headings read alike, the source gives them in different places.

Columns and labels:
[1] = biological target: T1, α1B Human Adrenergic Receptor (Homo sapiens, UniProt P35368); assay: Radioligand binding, [3H]prazosin, cloned human α1B adrenergic receptor
T1 construct: The entire coding region of α1B (1563 bp); expressed in transfected cells
T1 sequence (P35368 1-520): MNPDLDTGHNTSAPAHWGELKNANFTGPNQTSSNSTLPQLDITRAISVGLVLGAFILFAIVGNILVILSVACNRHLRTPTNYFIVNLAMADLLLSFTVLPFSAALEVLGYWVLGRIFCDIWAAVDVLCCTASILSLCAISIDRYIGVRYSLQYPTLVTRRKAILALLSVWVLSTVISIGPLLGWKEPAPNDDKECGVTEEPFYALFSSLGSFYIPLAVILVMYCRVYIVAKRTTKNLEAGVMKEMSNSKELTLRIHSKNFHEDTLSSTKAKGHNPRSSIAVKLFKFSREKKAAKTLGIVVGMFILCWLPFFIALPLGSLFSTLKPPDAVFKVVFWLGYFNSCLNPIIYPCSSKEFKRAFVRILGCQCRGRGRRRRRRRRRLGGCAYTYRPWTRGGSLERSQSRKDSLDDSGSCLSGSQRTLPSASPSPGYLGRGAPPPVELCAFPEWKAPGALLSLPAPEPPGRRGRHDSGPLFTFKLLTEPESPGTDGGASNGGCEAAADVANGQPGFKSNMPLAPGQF
Method in brief: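 [3H]prazosin (0.5 nM) binding was run for 20 min at 37° C in pH 7.5 Tris/MgCl2/ascorbate buffer on membranes of LM(tk−) cells stably expressing the cloned receptor. Filtration through GF/B ended the reaction; 10 μM phentolamine gave nonspecific binding.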

[2] = biological target: T2, α1C Human Adrenergic Receptor (Homo sapiens, UniProt P35348); assay: Radioligand binding, [3H]prazosin, cloned human α1C adrenergic receptor
T2 construct: The entire coding region of α1C (1401 bp); expressed in transfected cells
T2 sequence (P35348 1-466): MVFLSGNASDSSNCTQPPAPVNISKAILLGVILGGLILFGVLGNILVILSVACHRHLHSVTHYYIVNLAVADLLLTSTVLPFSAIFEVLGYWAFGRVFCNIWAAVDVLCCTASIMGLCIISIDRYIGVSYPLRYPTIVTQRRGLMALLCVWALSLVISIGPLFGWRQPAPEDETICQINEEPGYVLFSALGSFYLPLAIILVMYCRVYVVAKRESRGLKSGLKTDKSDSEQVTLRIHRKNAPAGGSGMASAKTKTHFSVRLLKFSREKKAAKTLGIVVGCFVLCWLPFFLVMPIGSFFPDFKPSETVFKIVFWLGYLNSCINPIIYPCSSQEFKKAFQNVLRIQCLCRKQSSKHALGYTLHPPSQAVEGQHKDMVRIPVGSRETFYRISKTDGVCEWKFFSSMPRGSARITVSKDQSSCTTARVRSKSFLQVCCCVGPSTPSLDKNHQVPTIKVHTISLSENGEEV
Method in brief: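 Read-out is filter-retained [3H]prazosin (0.5 nM) bound to membranes of LM(tk−) cells stably carrying the human α1C receptor. Incubation ran 20 min at 37° C. at pH 7.5, with 10 μM phentolamine marking nonspecific binding.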

[3] = biological target: T3, α2B receptor (Homo sapiens, UniProt P18089); assay: Competition binding, [3H]rauwolscine, human α2B receptor
T3 construct: host or cells: LM(tk-) cells, line L-NGC-α2B
T3 sequence (P18089 1-450): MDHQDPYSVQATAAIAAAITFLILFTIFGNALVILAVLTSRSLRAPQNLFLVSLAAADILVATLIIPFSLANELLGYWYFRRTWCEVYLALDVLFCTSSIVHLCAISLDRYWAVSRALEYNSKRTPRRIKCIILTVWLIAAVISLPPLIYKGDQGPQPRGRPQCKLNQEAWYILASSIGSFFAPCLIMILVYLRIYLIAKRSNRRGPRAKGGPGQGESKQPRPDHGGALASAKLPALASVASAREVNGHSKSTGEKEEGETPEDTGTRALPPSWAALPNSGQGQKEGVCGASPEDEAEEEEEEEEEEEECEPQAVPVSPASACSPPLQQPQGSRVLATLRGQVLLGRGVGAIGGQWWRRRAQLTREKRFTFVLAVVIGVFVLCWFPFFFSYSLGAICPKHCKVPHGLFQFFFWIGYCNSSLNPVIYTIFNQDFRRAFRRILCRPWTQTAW
Method in brief: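 Filter-bound [3H]rauwolscine (0.5 nM) was measured after equilibrium competition with test antagonists on lysates of LM(tk−) cells stably transfected with each human α2 subtype. Buffer: 25 mM glycylglycine, pH 7.6 at room temperature; 10 μM phentolamine gave nonspecific binding.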

[4] = PKi alpha-1 1b, cloned human α1B receptor, LM(tk-) cell membranes
[5] = PKi alpha-1 1c, cloned human α1C receptor, LM(tk-) cell membranes
[6] = PKi alpha-2 2b, [3H]rauwolscine, human α2B receptor, LM(tk-) cells
[7] = cloned human receptor in LM(tk-) cell membranes, SEM and n in lines below, read-out: pKi alpha-1 1b (converted)
[8] = cloned human receptor in LM(tk-) cell membranes, SEM and n in lines below, read-out: pKi alpha-1 1c (converted)
[9] = [3H]rauwolscine, LM(tk-) cell line L-NGC-α2B, SEM and n in lines below, read-out: pKi alpha-2 2b (converted)
[10] = cloned human receptor, LM(tk-) cell membranes, mean, read-out: PKi alpha-1 1b (converted)
[11] = cloned human receptor, LM(tk-) cell membranes, mean, read-out: PKi alpha-1 1c (converted)
[12] = cloned human receptor in LM(tk-) cell membranes, SEM and n in lines below
[13] = [3H]rauwolscine, LM(tk-) cell line L-NGC-α2B, SEM and n in lines below

For CCC1=C(C(=O)NCCOC)C(c2ccc([N+](=O)[O-])cc2)C(C(=O)NCCCN2CCC(c3ccccc3)(c3ccccc3)CC2)=C(COC)N1 (stereo not drawn) [Example 247, 6-Ethyl-1,4-dihydro-5-N-((2-methoxy)ethyl)carboxamido-2-(methyloxy)methyl-4-(4-nitro)phenyl-3-(N-(3-(4,4-diphenylpiperidin-1-yl)propyl)) carboxamidopyridine], the Ki [1, 4] was 912 nM, the Ki [2, 5] was 24.5 nM and the Ki [3, 6] was 479 nM.
With CCC1=C(C(=O)NC)C(c2ccc([N+](=O)[O-])cc2)C(C(=O)NCCCN2CCC(C#N)(c3ccccc3)CC2)=C(CC)N1 (stereo not drawn) [Example 126, 3-{N-[3-(4-Cyano-4-phenylpiperidin-1-yl)propyl]}carboxamido-1,4-dihydro-2,6-diethyl-5-(1-methyl)carboxamido-4-(4-nitrophenyl)pyridine] the “pKi alpha-1 1b” value ([1]; cloned human α1B receptor, LM(tk−) cell membranes) was 5.37, the “pKi alpha-1 1c” value ([2]; cloned human α1C receptor, LM(tk−) cell membranes) was 7.95 and the “pKi alpha-2 2b” value ([3]; [3H]rauwolscine, human α2B receptor, LM(tk−) cells) was 5.63.
CC(=O)C1=C(C)NC(COCCN)=C(C(=O)NCCCN2CCC(c3ccccc3)(c3ccccc3)CC2)C1c1ccc2c(c1)OCO2 (stereo not drawn) [Example 239, 5-Acetyl-2-((2-aminoethyl)oxy)methyl-1,4-dihydro-6-methyl-4-(3,4-methylenedioxy)phenyl-3-(N-(3-(4,4-dipheylpiperidin-1-yl)propyl))carboxamidopyridine] showed a Ki [1, 4] of 257 nM, a Ki [2, 5] of 2.04 nM and a Ki [3, 6] of 759 nM.
CC1=C(C(N)=O)C(c2cccc([N+](=O)[O-])c2)C(C(=O)NCCCN2CCC(c3ccccc3)CC2)=C(C)N1 (stereo not drawn) [Example 62] showed a Ki [1, 7] of 316 nM, a Ki [2, 8] of 2.63 nM and a Ki [3, 9] of 57.5 nM.
CC(=O)C1=C(C)NC(CCCCN)=C(C(=O)NCCCN2CCC(c3ccccc3)(c3ccccc3)CC2)C1c1ccc([N+](=O)[O-])cc1 (stereo not drawn) [Example 176, 5-Acetyl-2-(4-aminobutyl)-1,4-dihydro-6-methyl-4-(4-nitrophenyl)-3-{N-[3-(4,4-diphenylpiperidin-1-yl)propyl]}carboxamidopyridine] showed a Ki ([1]; PKi alpha-1 1b, cloned human receptor, LM(tk-) cell membranes, mean) of 158 nM, a Ki ([2]; PKi alpha-1 1c, cloned human receptor, LM(tk-) cell membranes, mean) of 3.72 nM and a Ki ([3]; PKi alpha-2 2b, [3H]rauwolscine, human receptor, LM(tk-) cell lysates, mean) of 1200 nM.
In the case of CCC1=C(C(=O)NC2CCN(Cc3ccccc3)CC2)C(c2ccc([N+](=O)[O-])cc2)C(C(=O)OC)=C(C)N1 (stereo not drawn) [Example 75, 2-Ethyl-1,4-dihydro-5-methoxycarbonyl-6-methyl-4-(4-nitro)phenyl-3-(N-(N-phenylmethyl)piperidin-4-yl)carboxamidopyridine hydrochloride], the Ki [1, 7] is reported as 3890 nM, the Ki [2, 8] is reported as 794 nM and the Ki [3, 9] is reported as 3090 nM.
For COC(=O)C1=C(C)NC(C)=C(C(=O)NCCCN2CCC(c3ccccc3)CC2)C1c1ccc([N+](=O)[O-])cc1 (single isomer, unassigned; (+)) [(+)-45, 1,4-Dihydro-3-methoxycarbonyl-2,6-dimethyl-4-(4-nitrophenyl)-5-{N-[3-(4-phenylpiperidin-1-yl)propyl]}carboxamidopyridine hydrochloride hemihydrate], the Ki [1, 7] was 57.5 nM, the Ki [2, 8] was 9.33 nM and the Ki [3, 9] was 91.2 nM.
CC1=C(C(=O)NCCCN2CCC(c3ccccc3)CC2)C(c2ccc([N+](=O)[O-])cc2)c2c([nH]c(=O)[nH]c2=O)N1 (stereo not drawn) [Example 63, 1,4-Dihydro-6-methyl-4-(4-nitrophenyl)-5-{N-[3-(4-phenylpiperidin-1-yl)propyl]}carboxamido-[2,3, d]uracilylpyridine] gave a Ki [1, 7] of 18.6 nM, a Ki [2, 8] of 38.9 nM and a Ki [3, 9] of 132 nM.
With CCC1=C(C(=O)NC)C(c2ccc([N+](=O)[O-])cc2)C(C(=O)NCCCN2CCC(C(=O)OC)(c3ccccc3)CC2)=C(CCCCOC)N1 (stereo not drawn) [Example 174, 6-Ethyl-1,4-dihydro-2-(4-methoxybutyl)-3-{N-[3-(4-methoxycarbonyl-4-phenylpiperidin-1-yl)propyl]}carboxamido-5-(N-methyl)carboxamido-4-(4-nitrophenyl)pyridine] the Ki [1, 10] was 1910 nM, the Ki [2, 11] was 4.07 nM and the Ki ([3]; [3H]rauwolscine, human receptor, LM(tk-) cell lysates, mean, read-out: PKi alpha-2 2b (converted)) was 955 nM.
In the case of CC(=O)C1=C(C)NC(C)=C(C(=O)NCCCN2CCC(c3ccccc3)(c3ccccc3)CC2)C1c1ccc([N+](=O)[O-])cc1 (stereo not drawn) [Example 47, 5-Acetyl-1,4-dihydro-2,6-dimethyl-4-(4-nitrophenyl)-3-{N-[3-(4,4-diphenylpiperidin-1-yl)propyl]}carboxamidopyridine], the “pKi alpha-1 1b” value [1, 12] is reported as 6.58, the “pKi alpha-1 1c” value [2, 12] is reported as 8.93 and the “pKi alpha-2 2b” value [3, 13] is reported as 6.36.
For CCNC(=O)C1=C(CC)NC(COCCN)=C(C(=O)NCCCN2CCC(C(=O)OC)(c3ccccc3)CC2)C1c1ccc([N+](=O)[O-])cc1 (stereo not drawn) [Example 233, 2-((2-Aminoethyl)oxy)methyl-6-ethyl-5-N-ethylcarboxamido-1,4-dihydro-3-(N-(3-(4-methoxycarbonyl-4-phenylpiperidin-1-yl)propyl))carboxamido-4-(4-nitro)phenylpyridine], the Ki [1, 10] was 1620 nM, the Ki [2, 11] was 2.14 nM and the Ki ([3]; PKi alpha-2 2b) was 8710 nM.
With CC1=C(C(N)=O)C(c2ccc([N+](=O)[O-])cc2)C(C(=O)NCCCN2CCC(c3ccccc3)CC2)=C(C)N1 (stereo not drawn) [Example 60, 5-Carboxamido-1,4-dihydro-2,6-dimethyl-4-(4-nitrophenyl)-3-{N-[3-(4-phenylpiperidin-1-yl)propyl]}carboxamidopyridine] the Ki [1, 7] was 77.6 nM, the Ki [2, 8] was 2.75 nM and the Ki [3, 9] was 69.2 nM.
With COc1cc2c(c(OC)c1)CCN(CCCNC(=O)C1=C(c3ccoc3)NC(C)=C(C(N)=O)C1c1ccc([N+](=O)[O-])cc1)C2.Cl.O (stereo not drawn) [Example 67] the “pKi alpha-1 1b” value [1, 12] was 6.18, the “pKi alpha-1 1c” value [2, 12] was 6.48 and the “pKi alpha-2 2b” value [3, 13] was 5.79.
COC(=O)C1=C(C)NC(C)=C(C(=O)NCCCN2CCC(c3ccccc3)CC2)C1c1ccc([N+](=O)[O-])cc1 (single isomer, unassigned; (-)) [(−)-45, 1,4-Dihydro-3-methoxycarbonyl-2,6-dimethyl-4-(4-nitrophenyl)-5-{N-[3-(4-phenylpiperidin-1-yl)propyl]}carboxamidopyridine hydrochloride hemihydrate] gave a Ki [1, 7] of 9.12 nM, a Ki [2, 8] of 0.182 nM and a Ki [3, 9] of 229 nM.
CC1=C(C(N)=O)C(c2ccc([N+](=O)[O-])cc2)C(C(=O)NCCCN2CCC(C(=O)O)(c3ccccc3)CC2)=C(C)N1 (stereo not drawn) [Example 210, 5-Carboxamido-3-{N-[3-(4-carboxy-4-phenylpiperidin-1-yl)propyl]}carboxamido-1,4-dihydro-2,6-dimethyl-4-(4-nitrophenyl)pyridine] gave a Ki [1, 10] of 44700 nM, a Ki [2, 11] of 93.3 nM and a Ki ([3]; PKi alpha-2 2b) of 23400 nM.
